Test results taken from ChEMBL document CHEMBL2094260, “Malaria Box Tuberculosis Screening Data”.

Experiments:
[1] = test system: Mycobacterium tuberculosis; assay: MMV: Screen against Mtb, single point, non replicating, at 25uM; type: functional
[2] = test system: Mycobacterium tuberculosis; assay: MMV: Screen against Mtb, single point, replicating, at 25uM; type: functional

Structure (SMILES)	inhibition at 25 µM [1]	inhibition at 25 µM [2]
Cc1cc(NC(=O)c2cccc(C(F)(F)F)c2)n(-c2nc(-c3ccc4c(c3)OCO4)cs2)n1	3.48%	5.83%
Cc1cccc(-n2ncc3c(O)nc(-n4nc(C)cc4NC(=O)c4cc5ccccc5o4)nc32)c1	48.2%	48.5%
O=C(Nc1ccccc1O)c1ccc(Oc2cccc(C(=O)Nc3ccccc3O)c2)cc1	11.7%	11.8%
Oc1ccccc1CN1CCC2(CCCN(Cc3ccccc3F)C2)C1 (configuration not stated)	9.59%	50.6%
N=c1n(CCN2CCCCC2)c2ccccc2n1CC(O)c1cccc(Br)c1 (configuration not stated)	12.9%	16.3%
COc1cccc(O)c1CN1CCC2(CCCN(Cc3ccc(F)cc3)C2)C1 (configuration not stated)	16.4%	18%
Cc1ccc(-c2cc(C(=O)Nc3ccc(S(=O)(=O)N4CCCCC4)cc3)[nH]n2)c(O)c1	9.41%	11.4%
O=C(NCc1ccco1)C1CCN(S(=O)(=O)c2ccc(Cl)cc2)CC1	12.4%	46.4%
COc1ccc(C(=O)Nc2ccc3nc(N4CCCCC4)cc(C)c3c2)cc1OC	23.7%	21.3%
COc1ccc(N2CCN(C(CNC(=O)C3CCCCC3)c3ccc4c(c3)OCO4)CC2)cc1 (configuration not stated)	0.862%	-3.89%
c1ccc(-c2ccc(-c3nc4ccccc4[nH]3)cc2)cc1	0.513%	20.6%
CCC(C)NCC(O)(c1ccc(Cl)cc1)c1ccc(Cl)cc1 (configuration not stated)	10.6%	17.4%
COc1cc2cc(C(=O)Nc3ccccc3)c(N)nc2cc1OC	1.39%	17.1%
COc1cccc(NC(=O)Cn2c(C)c(C#N)c3ccccc32)c1	8.89%	7.96%
Cn1c(=O)c2cc(C(=O)NCCCN3CCCCCC3)sc2c2ccccc21	14.6%	19.5%
Cc1[nH]c(-c2ccc(F)cc2)cc1C(=O)NC1CCN(Cc2ccccc2)CC1	4%	20.7%
COc1ccc(CCN2CCC(CN(C)Cc3cnn(-c4ccccc4)c3)CC2)cc1	15%	21.3%
O=C(NC(c1ccccc1)c1ccc2cccnc2c1O)c1ccccc1 (configuration not stated)	17.1%	7.65%
COCCNC(=O)c1ccc(OC2CCN(Cc3ccc(F)c(F)c3)CC2)c(Cl)c1	14.1%	12.7%
Oc1ccccc1CN1CCN(C(c2ccccc2)c2ccccc2)CC1	28.8%	33.3%
O=C(NC1CCCC1)c1ccc(N2CCC(NCc3cccc(C(F)(F)F)c3)CC2)cc1	3.83%	22.1%

Structure (SMILES)	inhibition at 25 µM [1]	inhibition at 25 µM [2]
CCOc1cc(Br)c(C(C)NC(=O)c2cccc(OC)c2)cc1OCC (configuration not stated)	5.22%	11.9%
CC(C)=CCN1CCC(C(=O)Nc2ccc(-c3nc4ccccc4[nH]3)cc2)CC1	17.3%	12.5%
CCN(CC)CCn1c(=N)n(CC(O)c2ccc(Cl)c(Cl)c2)c2ccccc21 (configuration not stated)	10.1%	36.2%
CCOc1cc(Cl)c(C(C)NC(=O)c2cccc(OC)c2)cc1OCC (configuration not stated)	9.94%	1.28%
O=C(CCc1ccco1)NC1CCN(CC2(c3ccc(Cl)cc3)CCC2)CC1	20.8%	31.6%
FC(F)(F)c1cccc(Nc2nc(-c3ccccc3)nc3ncccc23)c1	7.32%	1.43%
CCN1CCN(c2cc(C)c3cc(NC(=O)c4ccc(OC)c(OC)c4)ccc3n2)CC1	12.7%	14.8%
COc1ccc(CNC2CCN(c3ccc(NC(=O)c4cccc(Cl)c4)cc3)CC2)cc1OC	19.2%	47.3%
COCCN(C(=O)Cc1cccs1)C(C(=O)NCc1ccc(OC)cc1)c1ccc(C(C)C)cc1 (configuration not stated)	31.4%	10.2%
Cc1ccc(CSCc2ccc(C(=O)NC3CC3)o2)cc1	11.3%	24.4%
CC(NCc1ccccc1)c1cc(Cl)ccc1O (configuration not stated)	14.8%	21.2%
CN1CCN(c2c3c(c(C#N)c4nc5ccccc5n24)CCC3)CC1	4.53%	7.2%
CCOc1ccc(C2N(C)c3ccccc3N2C)cc1	11.7%	8.11%
FC(F)(F)c1cccc(CNC2CCN(CCc3ccccc3)CC2)c1	2.96%	22.8%
Oc1ccc(Cl)cc1CNc1nc2ccccc2[nH]1	4.53%	38.6%
O=C(c1ccccc1F)N(Cc1ccc(Cl)cc1)c1ccccn1	5.4%	9.78%
COc1ccc(C(=O)Nc2ccc(Cl)cc2C(=O)Nc2ccncc2)cc1	30.9%	4.46%
O=C(Nc1ccc(CN2CCOCC2)cc1)c1ccc(-c2ccc(Br)cc2)o1	24.4%	26%
CC(=O)NCCc1nc2ccccc2n1Cc1ccc(C(C)C)cc1	8.72%	2.04%
COc1nc(Nc2ccc(C(C)C)cc2)nc(OC)n1	8.02%	14%
CCN(CC)CCNc1ncnc2c1[nH]c1ccc(Br)cc12	13.4%	20.6%

Structure (SMILES)	inhibition at 25 µM [1]	inhibition at 25 µM [2]
CCOc1cccc(C(=O)Nc2ccc(-c3nc4ccccc4[nH]3)cc2)c1	18%	15.5%
O=C(Nc1ccc(Cl)cc1)N1CCN(c2ccc3nncn3n2)CC1	-3.33%	12.8%
CN(C)c1ccc(-c2nc3cc(N)ccc3[nH]2)cc1	16.4%	-1%
O=C(CSc1ccc2nnc(-c3cccc(F)c3)n2n1)Nc1ccc2c(c1)OCO2	19.2%	5.98%
CCN(CC)c1ccc(NC(=O)c2cccs2)cc1	13.1%	4.01%
CCCCNCC(O)(c1ccc(Cl)cc1)c1ccc(Cl)cc1	9.41%	16.9%
CCCC(c1nnnn1C1CCCCC1)N1CCN(C(=O)c2ccco2)CC1 (configuration not stated)	5.57%	20.4%
CC(C)(C)C(=O)Nc1ccc(C(=O)Nc2cccc(-c3nc4ccccc4[nH]3)c2)cc1	8.19%	10.8%
COc1ccc(-c2nonc2NC(=O)c2cccc(C)c2)cc1OC	-4.72%	3.1%
COc1cccc(-c2nn(C)c3sc(C(=O)NCCN4CCN(c5ccccc5F)CC4)cc23)c1	14.8%	29.5%
O=C(Nc1ccc(N2CCN(Cc3ccccc3)CC2)cc1)c1cccs1	6.45%	11%
Cc1ccc(CN2CCC(C(=O)Nc3ccc(-c4cc5ccccc5[nH]4)cc3)CC2)o1	22.9%	8.26%
O=C(Nc1ccc(N2CCCCC2)c(Cl)c1)c1ccc(Br)o1	11.9%	18.9%
Cc1ccc(Cn2c(N3CCC(C(=O)NCc4cccs4)CC3)nc3ccccc32)cc1	5.22%	44.4%
O=C(Nc1ccsc1C(=O)NC1CCCCC1)c1ccc(F)cc1	20.6%	3.4%
CC(C)(C)c1ccc(C(=O)Nc2nc3ccccc3s2)cc1	-0.011%	54%
CCOc1cccc2sc(N(Cc3cccnc3)C(=O)C3CCCCC3)nc12	14.3%	13.9%
CC1CC(C)CN(C(=O)c2ccc(Cl)cc2Cl)C1 (configuration not stated)	9.59%	14.8%
COc1ccccc1CNC(=O)C1c2ccccc2C(=O)N(CC(C)C)C1c1cccs1 (configuration not stated)	9.76%	15.7%
OC(CNC1CCCC1)Cn1c2ccccc2c2ccccc21 (configuration not stated)	13.1%	27.5%
COc1ccc(C2N(C)c3ccccc3N2C)cc1	-0.36%	-1.76%

Structure (SMILES)	inhibition at 25 µM [1]	inhibition at 25 µM [2]
CCN(CC)c1cc(C)c2cc(NC(=O)c3cccc(OC)c3)ccc2n1	19.7%	18.7%
CCOc1ccc(/C=C/c2nc(=O)c3ccccc3o2)cc1	12%	18.9%
O=C(Nc1ccccc1O)c1ccc(-c2ccc(Cl)cc2Cl)o1	27.6%	13.7%
CC(C)OCc1cc(CN2CCN(c3cccc(Cl)c3)CC2)c(O)c2ncccc12	11.7%	9.32%
CC(O)(c1ccc(Cl)cc1)C(CN1CCCCC1)c1ccccc1 (configuration not stated)	11.2%	8.72%
CCCCc1ccc(NS(=O)(=O)c2cc3c4c(c2)CCN4C(=O)CC3)cc1	-2.45%	7.2%
CCOc1ccc(-c2nc(NC(=O)c3cccc(S(C)(=O)=O)c3)sc2C)cc1	11.7%	54.3%
CCOc1ccccc1CNC(=O)C1c2ccccc2C(=O)N(CC(C)C)C1c1cccs1 (configuration not stated)	10.8%	43.5%
Clc1ccc2[nH]c3c(NCCCN4CCOCC4)ncnc3c2c1	21.6%	16.2%
COc1ccccc1N1CCN(C(CNS(=O)(=O)c2ccc(Cl)cc2)c2cccnc2)CC1 (configuration not stated)	15.2%	4.01%
CCCc1c(C)nc2ccccc2c1O	9.94%	15.9%
CCOc1c(Cl)cc(CNC(C)C(O)c2ccccc2)cc1OC (configuration not stated)	10.3%	12.7%
COc1ccc(C2Sc3ccccc3N=C3C2=C(O)c2ccccc23)cc1 (configuration not stated)	-1.58%	8.41%
CCCN(CCC)CCCNC(=O)c1cc2c(-c3ccc(OC)c(OC)c3)nn(C)c2s1	-0.011%	5.83%
CN1c2ccccc2N(C)C1c1ccc2c(c1)OCO2	14.5%	9.63%
O=C(NCC1Cc2cccc(-c3ccncc3)c2O1)c1csc2c1CCCC2 (configuration not stated)	5.92%	14.2%
C=C(C)CCC(C)N1CCC(N2CCC(C(=O)NCCc3ccccc3)CC2)CC1 (configuration not stated)	15.2%	-4.8%
C=CCc1c(C)nc2ccccc2c1O	1.56%	15.2%
